Laboratory results as given in PubChem BioAssay (NCI).
Where “and” joins values, the source holds several entries; their conditions need not be identical. Equal entries are not always repeated.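 Where inhibition never reached the appropriate level, the endpoint shown equals the highest concentration tested. Otherwise, values were interpolated linearly from a five-concentration, 48-hour dose response in 96-well plates. Here, GI50 denotes the concentration required for 50% inhibition of growth. TGI: concentration producing complete growth inhibition.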

Columns and labels:
Test in all cases: NCI tumour cell line growth inhibition, 48 h
HS 578T breast = tested on: HS 578T breast
NCI-H522 lung = tested on: NCI-H522 lung
CCRF-CEM leukemia = tested on: CCRF-CEM leukemia
M14 melanoma = tested on: M14 melanoma
DU-145 prostate = tested on: DU-145 prostate
MDA-MB-435 = tested on: MDA-MB-435
HCC-2998 colon = tested on: HCC-2998 colon
NCI-H23 lung = tested on: NCI-H23 lung
HCT-116 colon = tested on: HCT-116 colon
OVCAR-8 ovarian = tested on: OVCAR-8 ovarian

| SMILES | GI50 (HS 578T breast) | TGI (HS 578T breast) | GI50 (NCI-H522 lung) | TGI (NCI-H522 lung) | GI50 (CCRF-CEM leukemia) | TGI (CCRF-CEM leukemia) | GI50 (M14 melanoma) | TGI (M14 melanoma) | GI50 (DU-145 prostate) | TGI (DU-145 prostate) | GI50 (MDA-MB-435) | TGI (MDA-MB-435) | GI50 (HCC-2998 colon) | TGI (HCC-2998 colon) | GI50 (NCI-H23 lung) | TGI (NCI-H23 lung) | GI50 (HCT-116 colon) | TGI (HCT-116 colon) | GI50 (OVCAR-8 ovarian) | TGI (OVCAR-8 ovarian) |
| --- | --- | --- | --- | --- | --- | --- | --- | --- | --- | --- | --- | --- | --- | --- | --- | --- | --- | --- | --- | --- |
| O=C(NC1CCNCC1)c1[nH]ncc1NC(=O)c1c(Cl)cccc1Cl | 0.307 µM and 0.329 µM | 3.83 µM and > 2.71 µM | 0.387 µM and 0.28 µM | 1.94 µM and 2.17 µM | 0.331 µM and 0.335 µM | > 100 µM | 1.25 µM and 0.792 µM | 7.06 µM and 6.17 µM | 0.417 µM and 0.472 µM | > 23.6 µM | 0.37 µM and 0.335 µM | 1.72 µM and 1.58 µM | 0.396 µM and 0.328 µM | 12 µM and > 6.08 µM | 1.03 µM and 0.393 µM | 9.87 µM and 3.23 µM | 0.315 µM and 0.285 µM | > 100 µM | 0.659 µM and 0.66 µM | > 100 µM |
| Cc1ccc2nc3sc(=O)sc3nc2c1 | – | 61.8 µM | – | 35.7 µM | – | > 100 µM | – | 33.5 µM | – | > 100 µM | – | 29.8 µM | – | 30.2 µM | – | 42.5 µM | – | 30.9 µM | – | 28.6 µM |
| O=C1NC(=O)C(N2CCc3ccccc32)=C1c1ccc(Cl)cc1 | > 25 µM | > 25 µM | > 25 µM | > 25 µM | > 25 µM | > 25 µM | > 25 µM | > 25 µM | > 25 µM | > 25 µM | > 25 µM | > 25 µM | > 25 µM | > 25 µM | > 11.4 µM | > 25 µM | > 10.2 µM | > 16.6 µM | > 25 µM | > 25 µM |
| N#Cc1ccc(N2Cc3cc(Cl)ccc3OC3=C2C(=O)N(Cc2ccc(F)cc2)C3=O)cc1 | 1.02 µM | 13.6 µM | 0.475 µM | 1.01 µM | 0.229 µM | 1.09 µM | 2.81 µM | 9.33 µM | 0.662 µM | 1.45 µM | 0.607 µM | 1.44 µM | 0.973 µM | 2.89 µM | 0.811 µM | 2.7 µM | 0.275 µM | 0.934 µM | 1.43 µM | 3.12 µM |
| Cc1ccc(-c2c3c(N)nc(-c4ccncc4)nc3nc3c2c(C)nn3-c2ccccc2)cc1 | 5.92 µM | > 37.5 µM | > 37.5 µM | > 37.5 µM | 12.6 µM | > 37.5 µM | 13.8 µM | > 37.5 µM | 5.08 µM | 20.7 µM | 12.6 µM | > 37.5 µM | > 37.5 µM | > 37.5 µM | 21.6 µM | > 37.5 µM | 2.95 µM | 11.1 µM | 3.63 µM | > 37.5 µM |
| CCN1CCN(CC(=O)Nc2nc3ccc(NCc4ccc(C)cc4)cc3s2)CC1 | 5.12 µM | 15.9 µM | 4.45 µM | 11.5 µM | 1.49 µM | 6.3 µM | 1.14 µM | 2.19 µM | 7.97 µM | 16.4 µM | 1.05 µM | 2.3 µM | 6.5 µM | 14.6 µM | 5.91 µM | 13.9 µM | 1.53 µM | 5.32 µM | 6.66 µM | 16.5 µM |
| Cc1cc(Br)c2nsnc2c1[N+](=O)[O-] | 2.97 µM | 18.4 µM | 0.176 µM | 0.381 µM | 2.16 µM | 5.44 µM | 1.77 µM | 3.32 µM | 1.66 µM | 3.09 µM | 2.86 µM | 11.1 µM | 2.07 µM | 4.44 µM | 1.9 µM | 3.9 µM | 1.77 µM | 3.63 µM | 3.18 µM | 12.1 µM |
| Cc1cc(NS(=O)(=O)c2ccc(NC(=O)COc3ccc(-c4cc5ccccc5[nH]4)cc3)cc2)no1 | 1.98 µM | 4.98 µM | 1.79 µM | 4.09 µM | 2.13 µM | > 100 µM | 1.71 µM | 4.32 µM | 2.22 µM | 5.18 µM | 1.38 µM | 3.13 µM | 2.07 µM | 4.94 µM | 1.91 µM | 5 µM | 1.84 µM | 5.01 µM | 2.01 µM | 4.77 µM |
| Cc1cc2oc(=O)c(Cl)c(Cl)c2c(C)c1Cl | – | 9.64 µM | – | 28.3 µM | – | 7.04 µM | – | 22.4 µM | – | 27.8 µM | – | 15.3 µM | – | 14.1 µM | – | 39.7 µM | – | 14 µM | – | 10.4 µM |
| [CH3][Sn]([CH3])([CH3])[O]C(=O)C(O)c1ccccc1 (stereo not given) | 11.5 µM | 59.8 µM | 2.6 µM | 13.1 µM | 4.84 µM | > 73.5 µM | 1.98 µM | 4.15 µM | 6.18 µM | > 100 µM | 3.52 µM | 14.8 µM | 2.32 µM | 7.15 µM | 6.68 µM | 61.8 µM | 3.58 µM | 31.6 µM | 4.65 µM | > 54.9 µM |
| O=C(O)CC1C(=O)OC2C3COC(=O)c4cc(O)c(O)c(O)c4-c4c(cc(O)c(O)c4O)C(=O)OC2C(OC(=O)c2cc(O)c(O)c4c2C1C(O)C(=O)O4)C(OC(=O)c1cc(O)c(O)c(O)c1)O3 (stereo not given) | – | > 100 µM | – | 46.6 µM | – | 37 µM | – | > 100 µM | – | > 100 µM | – | 83 µM | – | > 100 µM | – | > 100 µM | – | 27.8 µM | – | 67.2 µM |
| CCCCCCCCn1ccc2cc(NC(=O)Cn3cc(CN4CCC(C)CC4)nn3)ccc21 | 1.6 µM | 4.12 µM | 1.73 µM | 3.48 µM | 2.5 µM | 9.71 µM | 1.63 µM | 3.08 µM | 1.94 µM | 3.9 µM | 1.65 µM | 3.08 µM | 1.74 µM | 3.24 µM | 2.04 µM | 4.34 µM | 1.57 µM | 2.93 µM | 1.86 µM | 3.81 µM |
| O=C1c2ccccc2C(=O)c2c(NCCNCCO)ccc(NCCNCCO)c21 | 0.333 µM and 0.208 µM and 1.22 µM | 2.49 µM and 4.02 µM and 5.69 µM | 0.482 µM and 0.452 µM and 0.267 µM | 5.48 µM and 2.22 µM and 1.32 µM | 0.156 µM and 0.461 µM and 0.264 µM | 14.6 µM and 11.1 µM | 1.9 µM and 2.64 µM and 1.7 µM | 8.52 µM and 13.6 µM and 11.6 µM | 0.718 µM and 1.41 µM and 1.29 µM | 4.89 µM and 8.28 µM and 8.69 µM | 2.43 µM and 3.09 µM and 1.95 µM | 7.22 µM and 13.2 µM and 6.06 µM | 1.39 µM and 1.95 µM and 2.18 µM | 3.78 µM and 7.83 µM and 7.03 µM | 0.94 µM and 1.43 µM and 1.22 µM | 4.54 µM and 8.5 µM and 5.81 µM | 0.715 µM and 0.908 µM and 0.934 µM | 6.79 µM and 6.81 µM and 11.2 µM | 0.349 µM and 0.718 µM and 0.821 µM | 6.5 µM and 6.81 µM and 6.08 µM |
| Cc1ccc(C2NC(=S)N3C(c4ccc(C)cc4)NC(=S)N23)cc1 (stereo not given) | 4.74 µM | 25 µM | 1.94 µM | 8.54 µM | 2.46 µM | 10.2 µM | 3.01 µM | 11.2 µM | 3.62 µM | 13.6 µM | 0.666 µM | 4.14 µM | 4.51 µM | 17.4 µM | 5.29 µM | 17.9 µM | 4 µM | 13.4 µM | 7.36 µM | 25.1 µM |
